Literature values in publication PMC5594551, “Heterogeneous drug penetrance of veliparib and carboplatin measured in triple negative breast tumors” (Breast Cancer Research : BCR, 2017).

Columns and labels:
MDA-MB-231 = system: MDA-MB-231; design: method as in PMID 21633166, PMID 21707865; conditions: ref [23], [25]; cited from earlier work
MDA-MB-436 = conditions: MDA-MB-436, BRCA1-mutated; ref [23], [25]; cited from earlier work

Q: With `C[C@]1(c2nc3c(C(N)=O)cccc3[nH]2)CCCN1` [veliparib] as the molecule, how does the Sensitivity in vitro (MDA-MB-231) read?
A: sensitivity

Q: And the Sensitivity in vitro (MDA-MB-436)?
A: sensitivity
